Reference: US11963962B2, “Platelet count-agnostic methods of treating myelofibrosis” (Sierra Oncology, Inc., priority 2018, dated 2024)
Marks after values point to notes of the source that are not given here.

Columns and labels:
Format in all cases: in vivo, human
myelofibrosis [1] = experiment: SIMPLIFY-1 Phase 3 trial: splenic response rate (SRR); conditions: for SRR Responders / SRR proportion (Wilson 95% CI) / SRR Absolute risk difference (Newcombe 95% CI): SIMPLIFY 1, 24 weeks; for SRR Absolute risk difference (Newcombe 95% CI): MMB vs Control
Method: In the SIMPLIFY-1 trial (NCT01969838), the efficacy and safety of MMB versus ruxolitinib (RUX) was studied in patients with myelofibrosis who were naïve to treatment with a JAK inhibitor and a platelet count of ≥50×10^9/L. Patients (N=432) with high risk or intermediate-2 risk or symptomatic intermediate-1 risk myelofibrosis received 24 weeks of treatment with 200 mg MMB once daily or 20 mg RUX twice a day (or per label), after which all patients could receive open-label momelotinib. […] The primary endpoint was a reduction by at least 35% in the spleen volume at 24 weeks compared with baseline.
(§1) FIG. 8A: SIMPLIFY-1 study of MMB in a first line population previously untreated with JAKi. For SIMPLIFY-1, the goal was non-inferiority over ruxolitinib (RUX) (MMB: N=215 subjects, and RUX: N=217 subjects). FIG. 8B: SIMPLIFY-2 study of second line population of anemic or thrombocytopenic subjects previously treated with RUX (red blood cell (RBC) transfusions on RUX=64%. RUX dose adjustment for: thrombocytopenia=21%; anemia/hematoma=35%). For SIMPLIFY-2, the goal was superiority over best available treatment (BAT) (MMB: N=104 subjects, and BAT: N=52 subjects). In both SIMPLIFY-1 and SIMPLIFY: Primary endpoint: >=35% reduction in spleen volume at 24 weeks. Secondary endpoints: Total symptom score (TSS) response at 24 weeks. Effects on RBC transfusion requirements.
The SIMPLIFY 1 clinical trial data was reanalyzed for subgroups of subjects having particular baseline platelet counts in the MMB versus RUX arms of the study.
Patient data was analyzed according to the following baseline platelet count (PLT) subgroups and in particular according to the threshold PLT of 150×10^9/L: 1) PLT<50×10^9/L; 2) 50×10^9/L≤PLT<100×10^9/L; 3) 100×10^9/L≤PLT<150×10^9/L. The reanalyzed data is presented in Table 13 (SIMPLIFY 1). Selected data is also illustrated in the following figures.

myelofibrosis [2] = experiment: SIMPLIFY-2 Phase 3 trial: total symptom score (TSS) response; conditions: for TSS Responders / TSS proportion (Wilson 95% CI) / TSS Absolute risk difference (Newcombe 95% CI): SIMPLIFY 2; for TSS Absolute risk difference (Newcombe 95% CI): MMB vs Control
Description: (§2) In the SIMPLIFY-2 trial (NCT02101268), the efficacy and safety of MMB was studied in anemic or thrombocytopenic subjects with myelofibrosis who were previously treated with ruxolitinib (RUX). […] Specifically, anemic or thrombocytopenic myelofibrosis patients who had and were previously treated with (RUX) (for at least 28 days) were studied over 24 weeks for response to MMB versus best available treatment (BAT), primarily RUX (89% of patients) but alternatively no treatment or other standard interventions, after which period all patients could receive extended MMB treatment. Previously treated RUX patients who either required red blood cell transfusions or RUX dose reduction with grade 3 thrombocytopenia, anemia, and/or bleeding at grade 3 or worse, with palpable spleen of at least 5 cm and without grade 2 or greater peripheral neuropathy were included in the trial. There was no lower limit for the required baseline platelet count. The primary endpoint was a reduction by at least 35% in the spleen volume at 24 weeks compared with baseline.
as §1
(§3) The SIMPLIFY 2 clinical trial data was reanalyzed for subgroups of subjects having particular baseline platelet counts in the MMB versus BAT arms of the study.
(§4) Patient data was analyzed according to the following baseline platelet count (PLT) subgroups and in particular according to a threshold PLT of 150×10^9/L: 1) PLT<50×10^9/L; 2) 50×10^9/L≤PLT<100×10^9/L; 3) 100×10^9/L≤PLT<150×10^9/L. The reanalyzed data is presented in Table 14 (SIMPLIFY 2).

myelofibrosis [3] = experiment: SIMPLIFY-2 Phase 3 trial: splenic response rate (SRR); conditions: for SRR Absolute risk difference (Newcombe 95% CI): MMB vs Control
Description: as §2, §1, §3, §4

myelofibrosis [4] = experiment: SIMPLIFY-2 Phase 3 trial: overall survival
Description: as §2

myelofibrosis [5] = experiment: Combined analysis of TI response in TD patients from SIMPLIFY-1, SIMPLIFY-2 and '1672; conditions: combined TD patients from SIMPLIFY-1, SIMPLIFY-2 and '1672 (n=152)
Description: This aggregate data is representative of a continuum of Intermediate/High Risk MF patients.

Cl.N#CCNC(=O)c1ccc(-c2ccnc(Nc3ccc(N4CCOCC4)cc3)n2)cc1 [MMB, N-(cyanomethyl)-4-(2-(4-morpholinophenylamino)pyrimidin-4-yl)benzamide]
SRR Responders (myelofibrosis [1]; 50 ≤ PLT < 100 ×10^9/L): 7
SRR proportion (Wilson 95% CI) (myelofibrosis [1]; 50 ≤ PLT < 100 ×10^9/L): 0.39
SRR Absolute risk difference (Newcombe 95% CI) (myelofibrosis [1]; 50 ≤ PLT < 100 ×10^9/L): 0.39
SRR Responders (myelofibrosis [1]; 100 ≤ PLT < 150 ×10^9/L): 4
SRR proportion (Wilson 95% CI) (myelofibrosis [1]; 100 ≤ PLT < 150 ×10^9/L): 0.14
SRR Absolute risk difference (Newcombe 95% CI) (myelofibrosis [1]; 100 ≤ PLT < 150 ×10^9/L): 0.08
SRR Responders (myelofibrosis [1]; ITT): 57
SRR proportion (Wilson 95% CI) (myelofibrosis [1]; ITT): 0.27
SRR Absolute risk difference (Newcombe 95% CI) (myelofibrosis [1]; ITT): −0.03
subjects who did not achieve a spleen response on ruxolitinib but did so after 24 weeks of additional momelotinib treatment (myelofibrosis [1]; SIMPLIFY 1, crossover arm): 16.5%
spleen response (SRR) at any time in the open label phase (myelofibrosis [1]; SIMPLIFY 1, momelotinib arm): 46.2%
SRR (myelofibrosis [1]; SIMPLIFY 1, overall): 26.5%
SRR (myelofibrosis [1]; SIMPLIFY 1, week 24, ITT, all patients): 27%
SRR (myelofibrosis [1]; SIMPLIFY 1, week 24, ITT, platelets 50-100 (subgroup 2)): 39%
SRR (myelofibrosis [1]; SIMPLIFY 1, week 24, ITT, platelets 100-150 (subgroup 3)): 14% ‡
SRR (myelofibrosis [1]; SIMPLIFY 1, week 24, baseline TSS ≥ 6, all patients): 25%
SRR (myelofibrosis [1]; SIMPLIFY 1, week 24, baseline TSS ≥ 6, platelets 50-100 (subgroup 2)): 43%
SRR (myelofibrosis [1]; SIMPLIFY 1, week 24, baseline TSS ≥ 6, platelets 100-150 (subgroup 3)): 14% ‡
SRR (myelofibrosis [1]; SIMPLIFY 1, week 24, baseline TSS ≥ 10, all patients): 24%
SRR (myelofibrosis [1]; SIMPLIFY 1, week 24, baseline TSS ≥ 10, platelets 50-100 (subgroup 2)): 42%
SRR (myelofibrosis [1]; SIMPLIFY 1, week 24, baseline TSS ≥ 10, platelets 100-150 (subgroup 3)): 13% ‡
spleen response compared with RUX (myelofibrosis [1]; SIMPLIFY 1, p=0.011): statistically non-inferior to RUX
TSS symptom response (myelofibrosis [2]; SIMPLIFY 2, second line patients): 26.2%
TSS Responders (myelofibrosis [2]; 50 ≤ PLT < 100 ×10^9/L): 9
TSS proportion (Wilson 95% CI) (myelofibrosis [2]; 50 ≤ PLT < 100 ×10^9/L): 0.27
TSS Absolute risk difference (Newcombe 95% CI) (myelofibrosis [2]; 50 ≤ PLT < 100 ×10^9/L): 0.27
TSS Responders (myelofibrosis [2]; 100 ≤ PLT < 150 ×10^9/L): 6
TSS proportion (Wilson 95% CI) (myelofibrosis [2]; 100 ≤ PLT < 150 ×10^9/L): 0.25
TSS Absolute risk difference (Newcombe 95% CI) (myelofibrosis [2]; 100 ≤ PLT < 150 ×10^9/L): 0.25
TSS Responders (myelofibrosis [2]; ITT): 27
TSS proportion (Wilson 95% CI) (myelofibrosis [2]; ITT): 0.26
TSS Absolute risk difference (Newcombe 95% CI) (myelofibrosis [2]; ITT): 0.20
TSS Responders (myelofibrosis [2]; PLT < 50 ×10^9/L): 1
TSS proportion (Wilson 95% CI) (myelofibrosis [2]; PLT < 50 ×10^9/L): 0.11
TSS Absolute risk difference (Newcombe 95% CI) (myelofibrosis [2]; PLT < 50 ×10^9/L): −0.03
SRR Responders (myelofibrosis [3]; 50 ≤ PLT < 100 ×10^9/L): 1
SRR proportion (Wilson 95% CI) (myelofibrosis [3]; 50 ≤ PLT < 100 ×10^9/L): 0.03
SRR Absolute risk difference (Newcombe 95% CI) (myelofibrosis [3]; 50 ≤ PLT < 100 ×10^9/L): −0.02
SRR Responders (myelofibrosis [3]; 100 ≤ PLT < 150 ×10^9/L): 3
SRR proportion (Wilson 95% CI) (myelofibrosis [3]; 100 ≤ PLT < 150 ×10^9/L): 0.13
SRR Absolute risk difference (Newcombe 95% CI) (myelofibrosis [3]; 100 ≤ PLT < 150 ×10^9/L): 0.03
SRR Responders (myelofibrosis [3]; ITT): 7
SRR proportion (Wilson 95% CI) (myelofibrosis [3]; ITT): 0.07
SRR Absolute risk difference (Newcombe 95% CI) (myelofibrosis [3]; ITT): 0.01
SRR Responders (myelofibrosis [3]; PLT < 50 ×10^9/L): 0
SRR proportion (Wilson 95% CI) (myelofibrosis [3]; PLT < 50 ×10^9/L): 0.00
mOS (myelofibrosis [4]): 28 months
≥8 week transfusion independence rate (myelofibrosis [5]): 48.7%
≥12 week transfusion independence rate (myelofibrosis [5]): 44.1%
